Results as given in ChEMBL document CHEMBL1141738, “Antihyperglycemic effects of N-containing sugars from Xanthocercis zambesiaca, Morus bombycis, Aglaonema treubii, and Castanospermum australe in streptozotocin-diabetic mice” (1998).
Active and inactive are the calls of the source. No cut-off for these calls is given here.

Experiments:
Mus musculus [1] = species: Mus musculus; experiment: Antihyperglycemic effect on STZ-diabetic ddY mouse assessed as reduction in blood glucose level by glucose oxidase method; assay type: functional, organism-based
Mus musculus [2] = experiment: Antihyperglycemic effect in STZ-diabetic ddY mouse assessed as reduction in blood glucose level at 150 umol/kg, ip after 4 hrs by glucose oxidase method; assay type: functional, organism-based
Mus musculus [3] = experiment: Antihyperglycemic effect in STZ-diabetic ddY mouse assessed as reduction in blood glucose level at 150 umol/kg, ip after 4 to 6 hrs by glucose oxidase method; assay type: functional, organism-based
Mus musculus [4] = experiment: Antihyperglycemic effect in STZ-diabetic ddY mouse assessed as reduction in blood glucose level at 150 umol/kg, ip after 2 hrs by glucose oxidase method; assay type: functional, organism-based; conditions: TDE = time-dependent effect
Mus musculus [5] = experiment: Antihyperglycemic effect on STZ-diabetic ddY mouse assessed as increase in plasma insulin level at 300 umol/kg, ip after 30 mins by ELISA; assay type: functional
Mus musculus [6] = experiment: Antihyperglycemic effect on STZ-diabetic ddY mouse assessed as increase in plasma insulin level at 300 umol/kg, ip after 2 hrs by ELISA; assay type: functional
Pancreas [7] = experiment: Potentiation of 8.3 mM glucose-induced immunoreactive insulin release in perfused Wistar rat pancreas by radioimmunoassay; assay type: functional, tissue-based
Pancreas [8] = experiment: Potentiation of 8.3 mM glucose-induced immunoreactive insulin release in perfused Wistar rat pancreas at 1 mM by radioimmunoassay; assay type: functional, tissue-based
Mus musculus [9] = experiment: Antihyperglycemic effect in STZ-diabetic ddY mouse assessed as reduction in blood glucose level at 30 umol/kg, ip after 6 hrs by glucose oxidase method; assay type: functional

For OC[C@H]1NCC[C@@H](O)[C@@H]1O[C@@H]1O[C@H](CO)[C@@H](O)[C@H](O)[C@H]1O, the Activity (Mus musculus [1]) was “Dose-dependent effect”.

With OC[C@H]1N[C@H](CO)[C@@H](O)[C@@H]1O the Activity (Mus musculus [2]) was “Active”.

In the case of O[C@H]1[C@H](O)[C@@H](O)CN2CC[C@H](O)[C@H]12, the Activity (Mus musculus [3]) is reported as “Active”.

With OC[C@H]1NCC[C@@H](O)[C@@H]1O [FAGOMINE] the Activity (Mus musculus [4]) was “tde”, the Activity (Mus musculus [5]) was 454 pg/mL and the Activity (Mus musculus [6]) was 560 pg/mL. The Activity (Pancreas [7]) was “Dose-dependent effect” and the Activity (Pancreas [8]) was “Active”.

With COc1ccc(Cl)cc1C(=O)NCCc1ccc(S(=O)(=O)NC(=O)NC2CCCCC2)cc1 [GLYBURIDE] the Activity (Mus musculus [9]) was 138 mg/dL.
